Measurements taken from patent publication US10131681B2, “Aminophosphinic derivatives that can be used in the treatment of pain” (PHARMALEADS, priority 2008, dated 2018).

Experiments:
OF1 male mice [1] = experiment: Von Frey test, mechanical allodynia after partial ligation of the sciatic nerve; format: in vivo
Method: (§1) This test was described in detail by A. B. Malmberg and A. I. Basbaum, Partial Sciatic nerve injury in the mouse as a model of neuropathic pain: behavioural and neuroanatomical correlates. Pain, (1998) 76, 215-222.
(§2) It was performed on OF1 male mice (Charles River, n=39), weighing 18 to 20 g, by partial ligation of the sciatic nerve on the ipsilateral side. The animals are tested over a period of 3 to 26 days after the operation.
The mechanical allodynia is measured as described by S. R. Chaplan et al., Quantitative assessment of tactile allodynia in the rat paw, J. Neurosci. Meth. (1994), 53, 55-63. The ipsilateral (lesion) and contralateral (control) paws are tested as above, the mechanical anti-allodynia effect being measured using the Von Frey method (Malmerg A. B. and Basbaum A. I., 1998, Pain, 76, 215-222) with filaments of increasing size likewise applying an increasing pressure.

OF1 male mice [2] = experiment: Plantar test, thermal hyperalgesia after partial ligation of the sciatic nerve; format: in vivo; settings: 50 mg/kg oral
Method: as §1, §2
The hyperalgesia was measured according to the method described by K. Hargreaves et al., A new sensitive method for measuring thermal nociception in cutaneous hyperalgesia, Pain (1988), 32, 77-88, using the “Plantar test” device (Bioseb, France) as the heat source. The intensity of the nociceptive stimulus is calibrated at 8-10 s with an automatic cut-off time of 20 seconds. The mean heat-induced paw withdrawal was measured on the ipsilateral (damaged nerve) and contralateral (intact nerve) paws. Each measurement is made 3 times on each paw.

[3] = Stability in solution of a prior art pro-drug in a parenteral vehicle, followed by HPLC; format: physicochemical; settings: ethanol/cremophor/H2O mixture (1:1:8)
Method: The study in solution of a compound according to the prior art was conducted as follows:
The compound according to the prior art is placed in solution in various mixtures used for parenteral administration, the solution subsequently being followed by HPLC (Kromasil C18 4.5*250 mm column, 50% CH3CN (0.1% TFA)/50% H2O (0.1% TFA)) to determine the composition of the solution. In any case, the formation of both products, free phosphonic acid (active compound) and the transfer product, is observed over time as illustrated in the diagram below: […]

OF1 male mice [4] = experiment: Formalin test (phase I), paw licking after oral administration; format: in vivo
Method: A/ Formalin Test (Phase I)
The molecules were studied at one time (90 min) for comparative tests and at two times, 90 and 150 minutes, so as to observe the period of action thereof.
The animals (OF1 male mice) were obtained from the Charles River breeding centre (France) and weighed […] at the start of the experiment. The weight of each mouse is taken into account for the administration of the product.
The test is based on the protocol described by S. HUNSKAAR et al., Formalin test in mice, a useful technique for evaluating mild analgesics, J. Neurosci. Methods (1995), 14, 69-75. The early part of the test ([…] after injecting formalin), is considered to reflect […], which is under study.
The mice (n=8) are placed individually in a transparent container (50×25 cm^2) and are acclimatised to this environment for 20 minutes. […] Each mouse is then immediately returned to the test container and pain (nociceptive) responses are measured for 5 minutes (early phase). Only the number of times the paw is licked is counted. […]
The analgesic action of the product is measured by the decline in the number of times the injured paw is licked, compared to the number of times the animal receiving the vehicle only licks its paw. The total (discontinuous) licking time, expressed in seconds for each mouse, is counted for […]. […]

Structure (SMILES): CC(OC(=O)N[C@@H](C)P(=O)(O)C[C@@H](Cc1ccc(-c2ccccc2)cc1)C(=O)N[C@@H](C)C(=O)O)OC(=O)C(C)C (some centres unmarked) [Example 4, 2-(2-biphenyl-4-ylmethyl-3-{hydroxy-[1-(1-isobutyryloxy-ethyloxycarbonylamino)-ethyl]-phosphinoyl}-propionylamino)-propionic acid]
- anti-allodynia effect used alone (OF1 male mice [1]; 10 mg/kg oral, 60 min): inactive

Structure (SMILES): CC(OC(=O)N[C@@H](C)P(=O)(O)C[C@@H](Cc1ccc(-c2ccccc2)cc1)C(=O)N[C@@H](C)C(=O)OCc1ccccc1)OC(=O)C(C)C (some centres unmarked) [Example 3, 2-(2-biphenyl-4-ylmethyl-3-{hydroxy-[1-(1-isobutyryloxy-ethoxycarbonylamino)-ethyl]-phosphinoyl}-propionylamino)-propionic acid benzyl ester]
- time of peak anti-hyperalgesia effect (OF1 male mice [2]): 90 min
- paw withdrawal, mean of contralateral paws (OF1 male mice [2]; 90 min, 14 days after surgery, contralateral paw): 9.4 s
- reduction in thermal hyperalgesia (OF1 male mice [2]; period 45-120 min, ipsilateral paw): 65-100%
- time of peak anti-allodynia effect (OF1 male mice [1]; 50 mg/kg oral): 60 min
- long-term anti-allodynia effect (OF1 male mice [1]; 50 mg/kg oral, 45-120 min): significant
- anti-allodynia effect at peak, % of the peak response (untreated control) (OF1 male mice [1]; 50 mg/kg oral, 60 min): 75%

Structure (SMILES): CCOC(=O)[C@H](C)NC(=O)[C@H](Cc1ccc(-c2ccccc2)cc1)CP(=O)(OC(C)OC(=O)C(C)C)[C@H](C)N (some centres unmarked) [prior art compound]
- % initial compound ([3]; 0 hrs after solubilisation): 90.5%
- % initial compound ([3]; 3 hrs after solubilisation): 82.0%
- % initial compound ([3]; 6 hrs after solubilisation): 75.7%
- % initial compound ([3]; 96 hrs after solubilisation): 25.1%

Structure (SMILES): NCC1(CC(=O)O)CCCCC1 [gabapentin, reference compound]
- anti-allodynia effect used alone (OF1 male mice [1]; 30 mg/kg oral, 60 min): inactive

Structure (SMILES): CCOC(=O)OC(C)OC(=O)[C@H](C)NC(=O)[C@H](Cc1ccc(-c2ccccc2)cc1)CP(=O)(O)[C@H](C)N.O=CO (some centres unmarked) [reference molecule, reference compound]
- analgesic activity at 90 minutes (OF1 male mice [4]; 100 mg/kg per os): no activity

Structure (SMILES): CCOC(=O)OC(C)OC(=O)[C@H](C)NC(=O)[C@H](Cc1ccc(-c2ccccc2)cc1)CP(=O)(O)[C@H](C)NC(=O)OC(C)OC(=O)C(C)C (some centres unmarked) [Example 8, 2-(2-biphenyl-4-ylmethyl-3-{hydroxy-[1-(1-isobutyryloxy-ethoxycarbonylamino)-ethyl]-phosphinoyl}-propionylamino)-propionic acid 1-ethoxycarbonyloxyethyl ester]
- analgesic activity at 90 minutes (OF1 male mice [4]; 50 mg/kg per os): very significant analgesic activity
